Test results: ChEMBL document CHEMBL5036336, “Structure-Guided Optimization Provides a Series of TTK Protein Inhibitors with Potent Antitumor Activity” (J Med Chem, 2021)
Active and inactive are the calls of the source. No cut-off for these calls is given here.

Experiments:
[1] = molecular target: T1, Proto-oncogene tyrosine-protein kinase Src (Homo sapiens, UniProt P12931); experiment: Inhibition of SRC N1 (unknown origin) at 3 uM by Z-lyte assay relative to control
[2] = molecular target: Testis-specific serine/threonine-protein kinase 2 (Homo sapiens) (UniProt Q96PF2); experiment: Inhibition of TSSK2 (unknown origin) at 3 uM by Z-lyte assay relative to control
[3] = molecular target: Testis-specific serine/threonine-protein kinase 2 (Homo sapiens, UniProt Q96PF2); experiment: Inhibition of TSSK2 (unknown origin) by Z-lyte assay
[4] = molecular target: T1, Proto-oncogene tyrosine-protein kinase Src; experiment: Inhibition of SRC N1 (unknown origin) by Z-lyte assay
[5] = test system: Leucine-rich repeat serine/threonine-protein kinase 2 (Homo sapiens), Q5S007 [G2019S]; experiment: Inhibition of LRRK2 G2019S mutant (unknown origin) at 3 uM by ADAPTA assay relative to control
[6] = molecular target: Mitogen-activated protein kinase 8 (Homo sapiens, UniProt P45983); experiment: Inhibition of JNK1 (unknown origin) by Z-lyte assay
Sequence of Mitogen-activated protein kinase 8 (P45983 whole entry): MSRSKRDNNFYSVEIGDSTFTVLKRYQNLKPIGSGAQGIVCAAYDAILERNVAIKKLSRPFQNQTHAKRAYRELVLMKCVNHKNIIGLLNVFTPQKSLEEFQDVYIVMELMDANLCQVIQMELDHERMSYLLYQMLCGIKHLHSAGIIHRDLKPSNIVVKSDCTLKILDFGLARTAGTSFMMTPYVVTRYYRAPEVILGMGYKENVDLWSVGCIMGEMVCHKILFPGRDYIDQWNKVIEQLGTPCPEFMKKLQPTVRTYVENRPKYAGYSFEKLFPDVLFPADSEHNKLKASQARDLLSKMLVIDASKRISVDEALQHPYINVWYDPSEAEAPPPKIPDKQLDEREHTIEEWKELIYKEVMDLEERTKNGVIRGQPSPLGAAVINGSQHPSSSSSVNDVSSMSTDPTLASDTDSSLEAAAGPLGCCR

[7] = Clearance in rat at 2 mg/kg, iv; assay type: ADME, organism-based; conditions: in vivo
[8] = molecular target: Leucine-rich repeat serine/threonine-protein kinase 2 (Homo sapiens, UniProt Q5S007, G2019S); experiment: Inhibition of LRRK2 G2019S mutant (unknown origin) by ADAPTA assay
[9] = Toxicity in CB17-SCID mouse xenografted with human TNBC PDX-CAL-51 cells assessed as body weight loss at 80 mg/kg, iv administered once per week for 3 weeks; assay type: organism-based; conditions: in vivo, 504 h
Cytochrome P450 3A4 = Cytochrome P450 3A4 (Homo sapiens, UniProt P08684); experiment: Inhibition of CYP3A4 in human liver microsomes using […] as substrate incubated for 5 mins in presence of NADPH by LC-MS/MS analysis; assay type: ADME
[10] = molecular target: T2, Dual specificity protein kinase TTK (Homo sapiens, UniProt P33981); experiment: Displacement of kinase tracer 236 from TTK (unknown origin) by LanthaScreen Eu kinase binding assay
T2 sequence (P33981 whole entry): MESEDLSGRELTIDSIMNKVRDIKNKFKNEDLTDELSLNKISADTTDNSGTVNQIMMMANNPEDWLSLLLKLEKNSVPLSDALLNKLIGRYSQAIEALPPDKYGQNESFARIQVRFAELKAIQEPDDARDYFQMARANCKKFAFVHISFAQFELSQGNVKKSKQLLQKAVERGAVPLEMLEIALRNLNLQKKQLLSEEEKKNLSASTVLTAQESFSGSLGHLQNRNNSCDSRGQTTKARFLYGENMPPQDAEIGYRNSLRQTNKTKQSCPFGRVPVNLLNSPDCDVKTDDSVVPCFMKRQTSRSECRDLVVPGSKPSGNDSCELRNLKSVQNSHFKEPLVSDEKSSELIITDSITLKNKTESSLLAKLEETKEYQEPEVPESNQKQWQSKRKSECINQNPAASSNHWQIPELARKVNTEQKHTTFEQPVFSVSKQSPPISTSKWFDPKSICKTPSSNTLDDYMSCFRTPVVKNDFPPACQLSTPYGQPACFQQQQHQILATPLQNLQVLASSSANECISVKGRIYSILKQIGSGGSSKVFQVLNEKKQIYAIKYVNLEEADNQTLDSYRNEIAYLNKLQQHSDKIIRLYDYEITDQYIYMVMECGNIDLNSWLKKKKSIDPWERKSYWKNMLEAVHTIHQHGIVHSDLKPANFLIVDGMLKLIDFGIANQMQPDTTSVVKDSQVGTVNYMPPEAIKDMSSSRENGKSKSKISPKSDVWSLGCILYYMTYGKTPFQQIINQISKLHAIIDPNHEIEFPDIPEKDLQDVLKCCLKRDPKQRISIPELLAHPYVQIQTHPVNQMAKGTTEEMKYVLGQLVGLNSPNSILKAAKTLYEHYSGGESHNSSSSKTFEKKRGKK

Homo sapiens [11] = species: Homo sapiens; experiment: Selectivity ratio of IC50 for inhibition of MAPKAPK3 (unknown origin) to IC50 for inhibition of TTK (unknown origin)
[12] = Clearance in mouse at 2 mg/kg, iv; assay type: ADME, organism-based; conditions: in vivo
Homo sapiens [13] = species: Homo sapiens; experiment: Selectivity index, ratio of IC50 for inhibition of CHK2 (unknown origin) to IC50 for inhibition of TTK (unknown origin)
[14] = molecular target: Serine/threonine-protein kinase Chk2 (Homo sapiens, UniProt O96017); experiment: Inhibition of CHK2 (unknown origin) by Z-lyte assay
Sequence of Serine/threonine-protein kinase Chk2 (O96017 whole entry): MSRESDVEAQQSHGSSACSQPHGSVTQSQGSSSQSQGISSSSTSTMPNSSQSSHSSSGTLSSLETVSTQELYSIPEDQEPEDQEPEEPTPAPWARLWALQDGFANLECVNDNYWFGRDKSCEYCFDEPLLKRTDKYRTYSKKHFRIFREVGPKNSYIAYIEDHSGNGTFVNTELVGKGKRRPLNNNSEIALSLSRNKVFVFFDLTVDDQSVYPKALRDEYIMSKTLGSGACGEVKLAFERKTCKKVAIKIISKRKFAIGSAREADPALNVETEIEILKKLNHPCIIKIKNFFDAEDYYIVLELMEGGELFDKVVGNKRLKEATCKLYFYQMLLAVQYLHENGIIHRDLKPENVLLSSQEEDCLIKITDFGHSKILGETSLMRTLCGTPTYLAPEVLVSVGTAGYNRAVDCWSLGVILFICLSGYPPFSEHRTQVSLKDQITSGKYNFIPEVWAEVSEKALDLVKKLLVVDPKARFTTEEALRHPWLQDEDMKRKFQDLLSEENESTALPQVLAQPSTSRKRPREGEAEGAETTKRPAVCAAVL

Homo sapiens [15] = species: Homo sapiens; experiment: Selectivity ratio of IC50 for inhibition of LRRK2 (unknown origin) to IC50 for inhibition of TTK (unknown origin)
[16] = Plasma protein binding in mouse; assay type: ADME, cell-free; conditions: read-out: PPB
[17] = molecular target: MAP kinase-activated protein kinase 3 (Homo sapiens, UniProt Q16644); experiment: Inhibition of MAPKAPK3 (unknown origin) by Z-lyte assay
Sequence of MAP kinase-activated protein kinase 3 (Q16644 whole entry): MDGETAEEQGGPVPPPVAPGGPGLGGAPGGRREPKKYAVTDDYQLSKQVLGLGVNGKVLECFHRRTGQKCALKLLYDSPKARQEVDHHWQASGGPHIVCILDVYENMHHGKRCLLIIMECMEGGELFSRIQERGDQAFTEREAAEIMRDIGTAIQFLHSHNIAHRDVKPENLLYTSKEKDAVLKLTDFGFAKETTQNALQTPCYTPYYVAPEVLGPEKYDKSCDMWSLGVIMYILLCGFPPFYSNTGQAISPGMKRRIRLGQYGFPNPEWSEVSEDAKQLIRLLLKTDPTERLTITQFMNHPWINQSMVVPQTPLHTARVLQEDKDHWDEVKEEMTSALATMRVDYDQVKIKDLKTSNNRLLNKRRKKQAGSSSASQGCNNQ

[18] = molecular target: Substance-P receptor (Homo sapiens) (UniProt P25103); experiment: Inhibition of Neurokinin NK1 receptor (unknown origin) at 10 uM relative to control
Sequence of Substance-P receptor (Homo sapiens) (P25103 whole entry): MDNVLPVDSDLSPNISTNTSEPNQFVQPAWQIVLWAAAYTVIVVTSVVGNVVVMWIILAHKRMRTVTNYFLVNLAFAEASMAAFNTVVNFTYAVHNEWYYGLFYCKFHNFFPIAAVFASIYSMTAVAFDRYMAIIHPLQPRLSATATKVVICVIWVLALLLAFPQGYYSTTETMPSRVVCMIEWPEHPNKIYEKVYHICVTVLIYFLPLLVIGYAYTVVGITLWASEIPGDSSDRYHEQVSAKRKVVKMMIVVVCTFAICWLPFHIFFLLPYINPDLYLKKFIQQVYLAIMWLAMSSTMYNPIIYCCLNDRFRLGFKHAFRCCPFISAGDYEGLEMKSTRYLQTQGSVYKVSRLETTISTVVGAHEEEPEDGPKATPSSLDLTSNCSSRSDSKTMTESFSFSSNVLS

[19] = molecular target: Testis-specific serine/threonine-protein kinase 1 (Homo sapiens, UniProt Q9BXA7); experiment: Inhibition of TSSK1 (unknown origin) by Z-lyte assay
Sequence of Testis-specific serine/threonine-protein kinase 1 (Q9BXA7 whole entry): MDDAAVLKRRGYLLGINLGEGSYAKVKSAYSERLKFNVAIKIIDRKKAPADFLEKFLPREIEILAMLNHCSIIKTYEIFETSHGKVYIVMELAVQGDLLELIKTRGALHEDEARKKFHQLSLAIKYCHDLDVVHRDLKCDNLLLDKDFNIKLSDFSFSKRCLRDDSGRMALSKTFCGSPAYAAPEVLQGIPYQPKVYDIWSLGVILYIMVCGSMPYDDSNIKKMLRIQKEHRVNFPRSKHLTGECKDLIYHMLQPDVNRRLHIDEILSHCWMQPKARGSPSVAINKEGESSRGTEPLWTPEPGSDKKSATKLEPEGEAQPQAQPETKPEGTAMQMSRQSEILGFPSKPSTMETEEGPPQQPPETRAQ

Homo sapiens [20] = species: Homo sapiens; experiment: Selectivity ratio of IC50 for inhibition of JNK2 (unknown origin) to IC50 for inhibition of TTK (unknown origin)
[21] = Volume of distribution at steady state in rat at 2 mg/kg, iv; assay type: ADME, organism-based; conditions: in vivo, read-out: Vdss
[22] = Volume of distribution at steady state in mouse at 2 mg/kg, iv; assay type: ADME, organism-based; conditions: in vivo, read-out: Vdss
[23] = molecular target: Voltage-gated inwardly rectifying potassium channel KCNH2 (Homo sapiens, UniProt Q12809); experiment: Inhibition of hERG
Sequence of Voltage-gated inwardly rectifying potassium channel KCNH2 (Q12809 whole entry): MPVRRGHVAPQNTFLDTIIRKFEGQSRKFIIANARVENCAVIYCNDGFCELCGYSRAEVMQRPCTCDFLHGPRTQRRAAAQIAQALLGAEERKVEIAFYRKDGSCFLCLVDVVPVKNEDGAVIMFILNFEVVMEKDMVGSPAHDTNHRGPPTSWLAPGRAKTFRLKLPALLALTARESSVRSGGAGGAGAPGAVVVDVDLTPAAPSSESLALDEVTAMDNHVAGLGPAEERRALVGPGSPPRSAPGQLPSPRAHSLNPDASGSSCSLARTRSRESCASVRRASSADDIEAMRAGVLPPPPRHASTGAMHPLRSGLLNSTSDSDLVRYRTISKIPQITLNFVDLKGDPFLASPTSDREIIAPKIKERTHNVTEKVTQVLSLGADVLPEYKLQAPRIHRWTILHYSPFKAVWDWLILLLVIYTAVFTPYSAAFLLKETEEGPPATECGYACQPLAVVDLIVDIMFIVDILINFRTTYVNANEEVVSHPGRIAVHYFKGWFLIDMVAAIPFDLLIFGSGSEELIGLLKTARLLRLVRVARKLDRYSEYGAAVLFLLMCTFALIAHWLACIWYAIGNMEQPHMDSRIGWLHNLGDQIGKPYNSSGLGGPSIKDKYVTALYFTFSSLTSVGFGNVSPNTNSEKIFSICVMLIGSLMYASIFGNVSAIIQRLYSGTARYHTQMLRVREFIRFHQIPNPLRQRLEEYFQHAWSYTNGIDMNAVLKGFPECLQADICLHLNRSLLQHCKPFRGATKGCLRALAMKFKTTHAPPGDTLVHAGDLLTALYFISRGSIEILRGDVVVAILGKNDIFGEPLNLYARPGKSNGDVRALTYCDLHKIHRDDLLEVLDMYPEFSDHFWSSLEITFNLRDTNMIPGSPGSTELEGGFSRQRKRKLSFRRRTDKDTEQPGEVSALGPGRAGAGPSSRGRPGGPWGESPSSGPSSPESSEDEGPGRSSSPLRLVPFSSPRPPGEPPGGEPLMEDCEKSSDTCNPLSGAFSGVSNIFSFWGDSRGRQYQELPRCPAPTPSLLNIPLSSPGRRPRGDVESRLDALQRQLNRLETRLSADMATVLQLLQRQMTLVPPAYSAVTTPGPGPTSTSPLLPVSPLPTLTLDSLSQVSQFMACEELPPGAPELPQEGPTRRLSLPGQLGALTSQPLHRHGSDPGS

[24] = Mean residence time in mouse at 2 mg/kg, iv; assay type: ADME, organism-based; conditions: in vivo
Homo sapiens [25] = species: Homo sapiens; experiment: Selectivity ratio of IC50 for inhibition of TSSK2 (unknown origin) to IC50 for inhibition of TTK (unknown origin)
[26] = molecular target: Muscarinic acetylcholine receptor M1 (Homo sapiens) (UniProt P11229); experiment: Inhibition of muscarinic M1 receptor (unknown origin) at 10 uM relative to control
Sequence of Muscarinic acetylcholine receptor M1 (Homo sapiens) (P11229 whole entry): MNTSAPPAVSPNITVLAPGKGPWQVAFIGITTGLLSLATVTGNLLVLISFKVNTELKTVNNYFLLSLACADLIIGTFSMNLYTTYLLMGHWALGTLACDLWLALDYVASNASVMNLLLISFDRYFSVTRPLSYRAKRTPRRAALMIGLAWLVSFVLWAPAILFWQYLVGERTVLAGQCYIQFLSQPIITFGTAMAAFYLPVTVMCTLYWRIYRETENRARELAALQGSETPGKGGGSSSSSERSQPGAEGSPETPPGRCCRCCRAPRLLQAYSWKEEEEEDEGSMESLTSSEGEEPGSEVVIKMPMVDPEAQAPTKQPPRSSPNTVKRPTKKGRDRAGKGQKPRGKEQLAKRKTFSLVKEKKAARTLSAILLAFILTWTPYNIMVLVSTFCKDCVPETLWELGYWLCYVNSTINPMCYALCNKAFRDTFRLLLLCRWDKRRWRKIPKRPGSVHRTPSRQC

[27] = Toxicity in CB17-SCID mouse xenografted with human CAL-51 cells assessed as body weight loss at 30 to 50 mg/kg, iv administered once per week for 16 days; assay type: organism-based; conditions: in vivo, 384 h, dose 30-50 mg/kg, time 16 day
CAL-51 [28] = experiment: Antiproliferative activity against human CAL-51 cells assessed as inhibition of cell proliferation measured after 3 days by Cell Titer-Glo luminescence based assay; assay type: functional; conditions: CAL-51, 72 h
CAL-51 [29] = experiment: Antitumor activity against human TNBC PDX-CAL-51 cells xenografted in CB17-SCID mouse assessed as tumor growth inhibition at 25 to 80 mg/kg, iv administered once per week for 3 weeks; assay type: functional, organism-based; conditions: dose 25-80 mg/kg
[30] = AUC in mouse at 2 mg/kg, iv; assay type: ADME, organism-based; design: dose 2 mg/kg; conditions: in vivo
[31] = molecular target: Substance-K receptor (Homo sapiens) (UniProt P21452); experiment: Inhibition of Neurokinin NK2 receptor (unknown origin) at 10 uM relative to control
Sequence of Substance-K receptor (Homo sapiens) (P21452 whole entry): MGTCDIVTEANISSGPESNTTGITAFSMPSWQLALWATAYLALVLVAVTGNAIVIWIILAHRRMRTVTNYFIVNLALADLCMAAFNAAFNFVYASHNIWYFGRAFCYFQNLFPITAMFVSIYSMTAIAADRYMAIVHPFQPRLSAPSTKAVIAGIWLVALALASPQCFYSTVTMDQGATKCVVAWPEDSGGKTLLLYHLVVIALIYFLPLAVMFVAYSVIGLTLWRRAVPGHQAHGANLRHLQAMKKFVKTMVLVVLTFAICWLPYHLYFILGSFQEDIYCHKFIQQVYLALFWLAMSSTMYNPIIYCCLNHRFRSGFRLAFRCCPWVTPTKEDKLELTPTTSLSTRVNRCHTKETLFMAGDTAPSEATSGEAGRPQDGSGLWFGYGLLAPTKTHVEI

T1 sequence (P12931 2-536 limits assumed): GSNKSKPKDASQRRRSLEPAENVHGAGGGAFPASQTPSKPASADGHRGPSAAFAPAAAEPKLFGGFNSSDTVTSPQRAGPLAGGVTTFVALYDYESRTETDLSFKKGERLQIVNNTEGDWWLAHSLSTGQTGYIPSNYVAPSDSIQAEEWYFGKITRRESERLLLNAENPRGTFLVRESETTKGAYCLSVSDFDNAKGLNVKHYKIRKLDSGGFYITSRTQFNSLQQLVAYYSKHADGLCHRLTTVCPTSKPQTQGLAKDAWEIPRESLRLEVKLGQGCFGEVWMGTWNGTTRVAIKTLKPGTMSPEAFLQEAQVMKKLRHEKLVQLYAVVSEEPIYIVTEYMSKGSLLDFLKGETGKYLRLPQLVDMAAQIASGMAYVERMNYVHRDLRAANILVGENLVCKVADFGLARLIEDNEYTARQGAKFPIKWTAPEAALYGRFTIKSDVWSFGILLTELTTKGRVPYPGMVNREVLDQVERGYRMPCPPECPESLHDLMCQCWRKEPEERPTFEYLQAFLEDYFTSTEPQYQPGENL

## CCc1cccc(CC)c1N1CCn2cc(-c3nc(Nc4ccc(N5CCC(C(=O)N6CC7(CN(C)C7)C6)CC5)cc4OC)nc4[nH]ccc34)cc2C1=O
[1]
  inhibition: > 80%
[2]
  inhibition: > 80%
[3]
  IC50: 944 nM
[4]
  IC50: 1300 nM
[5]
  inhibition: > 80%
[6]
  IC50: 192 nM
[7]
  clearance: 2.8 mL/min/kg
[8]
  IC50: 229 nM
[9]
  Activity: Non-Toxic
Cytochrome P450 3A4
  IC50: > 5000 nM
[10]
  IC50: 3 nM
Homo sapiens [11]
  Ratio IC50: 493
[12]
  clearance: 8.8 mL/min/kg
Homo sapiens [13]
  Ratio IC50: 182
[14]
  IC50: 545 nM
Homo sapiens [15]
  Ratio IC50: 114
[16]
  fraction unbound: < 0.01
[17]
  IC50: 1480 nM
[18]
  inhibition: 80%
[19]
  IC50: 35 nM
Homo sapiens [20]
  Ratio IC50: 201
[21]
  Vd: 0.66 L/kg
[22]
  Vd: 0.53 L/kg
[23]
  IC50: > 30000 nM
[24]
  MRT: 58.8 min
Homo sapiens [25]
  Ratio IC50: 315
[26]
  inhibition: 80%
[27]
  Activity: Non-Toxic
CAL-51 [28]
  IC50: 16 nM
CAL-51 [29]
  Activity: Active
[30]
  AUC: 5.29 µM·h
[31]
  inhibition: 80%
